Activity calls are given as the source filed them. The rule behind the calls is not given here.

One series concerns the target Neuraminidase (Influenza A virus, UniProt B4URF0). In words: Noncompetitive inhibition of recombinant influenza A virus rvH1N1 A/Bervig_Mission/1/18 neuraminidase.
Series [1] in a line: Cytotoxicity against MDCK cells after 48 hrs by MTT assay. The class given is cell-based, Canis lupus familiaris. As to conditions: dog.
In series [2] the test system is Influenza A virus. In words: Antiviral activity against influenza A virus H1N1 A/PR/8/34 infected in MDCK cells assessed as reduction in virus-induced cytopathic effect. As to conditions: A/Puerto Rico/8/1934(H1N1). The class given is functional, organism-based. On the technique in general: Protection from cytopathic effect is a common read-out in antiviral testing.

Series [3] concerns Influenza A virus. In words: Antiviral activity against influenza A virus H9N2 A/Chicken/Korea/MS96/96 infected in MDCK cells assessed as reduction in virus-induced cytopathic effect. In kind it is functional, organism-based. As to conditions: A/Chicken/Korea/MS96/96, MDCK.
Series [4] in a line: Selectivity index, ratio of CC50 for MDCK cells to EC50 for influenza virus H1N1 A/PR/8/34. The class given is toxicity, cell-based. As to conditions: dog, read-out: Ratio CC50/EC50.
A short description of series [5]: Selectivity index, ratio of CC50 for MDCK cells to EC50 for influenza virus H9N2 A/Chicken/Korea/MS96/96. The class given is toxicity, cell-based. As to conditions: dog, read-out: Ratio CC50/EC50.
Another series deals with T1, Sialidase (Clostridium perfringens, UniProt P10481).
T1 sequence (P10481 whole entry): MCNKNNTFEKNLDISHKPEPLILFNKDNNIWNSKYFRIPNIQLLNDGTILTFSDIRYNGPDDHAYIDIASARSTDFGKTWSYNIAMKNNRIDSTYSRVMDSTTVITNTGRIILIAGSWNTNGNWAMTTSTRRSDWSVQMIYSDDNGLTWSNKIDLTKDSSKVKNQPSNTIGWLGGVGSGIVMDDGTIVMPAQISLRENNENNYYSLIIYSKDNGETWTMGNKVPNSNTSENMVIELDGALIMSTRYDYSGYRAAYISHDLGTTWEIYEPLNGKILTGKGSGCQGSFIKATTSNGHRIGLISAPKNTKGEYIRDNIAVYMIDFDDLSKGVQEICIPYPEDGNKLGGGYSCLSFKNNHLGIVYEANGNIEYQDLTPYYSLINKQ
In words: Inhibition of Clostridium perfringens neuraminidase.

For series [6], the system named is Influenza A virus. In words: Antiviral activity against influenza A virus H1N1 A/PR/8/34 infected in MDCK cells assessed as reduction in fluorescence positive cells at 50 uM immunofluorescence assay. The class given is functional, organism-based. As to conditions: A/Puerto Rico/8/1934(H1N1).

One may read the IC50 as the point on the concentration scale where inhibition reaches its midpoint. For orientation: Ki means the equilibrium dissociation constant of an inhibitor or competing ligand from its target. As usually defined, the CC50 is the concentration giving 50% cytotoxicity. Low readings indicate harm at low concentration, high ones better tolerance by the cells. The term EC50 denotes the concentration at which the effect is half-maximal. As for `O=c1cc(-c2ccc(O)cc2)oc2cc(O)cc(O)c12` [APIGENIN], the IC50 on Neuraminidase worked out at 33.4 µM. On Neuraminidase, the Ki was 37.1 µM. This compound also showed a CC50 at 48 h in series [1] of over 300 µM. Further, the EC50 in the series with Influenza A virus [2] was determined as 60.4 µM; in the series with Influenza A virus [3], 42.7 µM. The selectivity ratio in series [4] is over 4.97; in series [5], over 7.03.

For `C[C@@H]1O[C@@H](Oc2cc(O)c3c(=O)c(O)c(-c4ccc(O)cc4)oc3c2O)[C@H](O)[C@H](O[C@H]2O[C@@H](CO)[C@H](O)[C@@H](O)[C@@H]2O)[C@H]1O` [RHODIOSIN], the EC50 is 81.9 µM in the series with Influenza A virus [2] and 35.1 µM with Influenza A virus [3].

On to `O=c1c(O)c(-c2ccc(O)c(O)c2)oc2cc(O)cc(O)c12` [QUERCETIN], for which the results for the IC50 against Sialidase and on Neuraminidase were 1.7 µM and 2.2 µM, respectively. For the same compound, the Ki on Neuraminidase is 3.8 µM. Moreover, the midpoint of cytotoxicity in series [1], the CC50 at 48 h, lay at 254 µM. Further, the EC50 worked out at 43.1 µM with Influenza A virus [2] and 134 µM in the series with Influenza A virus [3]. In addition, the selectivity ratio in series [4] was found to be 5.89; in series [5], 1.9.

With `C[C@@H]1O[C@@H](OC[C@H]2O[C@@H](Oc3c(-c4ccc(O)cc4)oc4cc(O)cc(O)c4c3=O)[C@H](O)[C@@H](O)[C@@H]2O)[C@H](O)[C@H](O)[C@H]1O` [NICOTIFLOROSIDE], the IC50 is 55.5 µM against Sialidase and 31.7 µM at Neuraminidase. For the same compound, the Ki on Neuraminidase turned out to be 32.7 µM. The CC50 at 48 h in series [1] was over 300 µM. Besides, the EC50 in the series on Influenza A virus [2] was 40.1 µM; in the series on Influenza A virus [3] it was 72.9 µM. In addition, the selectivity ratio in series [4] is over 7.48; in series [5], over 4.12.

For `O=c1c(O)c(-c2ccc(O)c(O)c2)oc2c(O)c(O)cc(O)c12` [GOSSYPETIN], the IC50 came to 0.8 µM on Sialidase and 2.6 µM at Neuraminidase. In addition, the Ki at Neuraminidase was 7.7 µM. Also, it took 283 µM to reach half-maximal cytotoxicity in series [1] (CC50 at 48 h). Also, the EC50 in the series on Influenza A virus [2] came to 43 µM; with Influenza A virus [3] it was 36.3 µM. Moreover, the selectivity ratio is 6.58 in series [4] and 7.8 in series [5].

In the case of `O=c1c(O)c(-c2ccc(O)cc2)oc2cc(O)cc(O)c12` [KAEMPFEROL], the IC50 on Sialidase turned out to be 8 µM; on Neuraminidase it was 11.2 µM. In addition, the Ki on Neuraminidase is 21.1 µM. Besides, the CC50 at 48 h in series [1] is over 300 µM. The EC50 in the series on Influenza A virus [2] stood at 30.2 µM; with Influenza A virus [3], 18.5 µM. In addition, the selectivity ratio is over 9.93 in series [4] and over 16.2 in series [5]. Further, in the series on Influenza A virus [6], the result was Active.

As to `O=c1c(O[C@@H]2O[C@H](CO)[C@@H](O)[C@H](O)[C@H]2O)c(-c2ccc(O)cc2)oc2cc(O)cc(O)c12` [ASTRAGALIN], the figures for the IC50 on Sialidase and at Neuraminidase were 29.4 µM and 38.4 µM, respectively. Further, at Neuraminidase, the Ki is 33 µM. The CC50 at 48 h in series [1] is over 300 µM. Besides, the EC50 in the series on Influenza A virus [2] is 40 µM; with Influenza A virus [3], 61.9 µM. The selectivity ratio in series [4] is over 7.5; in series [5], over 4.85.

Regarding `C[C@@H]1O[C@@H](OC[C@H]2O[C@@H](Oc3c(-c4ccc(O)c(O)c4)oc4cc(O)cc(O)c4c3=O)[C@H](O)[C@@H](O)[C@@H]2O)[C@H](O)[C@H](O)[C@H]1O` [RUTIN], the IC50 stood at 30.9 µM against Sialidase and 34.4 µM at Neuraminidase. The Ki at Neuraminidase was 33.8 µM.

`O=c1c(O[C@@H]2O[C@H](CO)[C@@H](O)[C@H](O)[C@H]2O)c(-c2ccc(O)cc2)oc2c(O[C@@H]3O[C@H](CO)[C@@H](O)[C@H](O)[C@H]3O)c(O)cc(O)c12` [LINOCINAMARIN]: the IC50 on Sialidase is 39.1 µM; on Neuraminidase, 44.2 µM. Further, the Ki at Neuraminidase was 63.8 µM. In addition, the CC50 at 48 h in series [1] was over 300 µM. Besides, the EC50 with Influenza A virus [2] was 99.1 µM; in the series with Influenza A virus [3] it was 100 µM. Moreover, the results for the selectivity ratio in series [4] and in series [5] were over 3.03 and over 3, respectively.

As to `O=c1cc(-c2ccc(O)c(O)c2)oc2cc(O)cc(O)c12` [LUTEOLIN], the IC50 against Sialidase was 4.3 µM; at Neuraminidase it was 11 µM. For the same compound, on Neuraminidase, the Ki was 19.6 µM. The compound also had a CC50 at 48 h in series [1] of 165 µM. Besides, the EC50 in the series on Influenza A virus [2] worked out at 84 µM; in the series on Influenza A virus [3], 103 µM. Further, the selectivity ratio in series [4] was 1.96; in series [5], 1.6.

In series [1], `CCOC(=O)C1=C[C@@H](OC(CC)CC)[C@H](NC(C)=O)[C@@H](N)C1` [OSELTAMIVIR] displayed a CC50 at 48 h of over 300 µM. The EC50 with Influenza A virus [2] came out at 8.3 µM; with Influenza A virus [3], 6.25 µM. The outcome in the series with Influenza A virus [6] was Active.

Take `C[C@@H]1OC(Oc2cc(O)c3c(=O)c(O)c(-c4ccc(O)cc4)oc3c2O)[C@H](O)[C@H](O)[C@H]1O` (stereo partly specified) [RHODIONIN]: the results for the IC50 on Sialidase and at Neuraminidase were 40.6 µM and 32.2 µM, respectively. In addition, the Ki on Neuraminidase is 59.4 µM. In series [1], this compound showed a CC50 at 48 h of over 300 µM. In addition, the EC50 worked out at 74.8 µM in the series on Influenza A virus [2] and 49.6 µM in the series with Influenza A virus [3]. The selectivity ratio in series [4] is over 4.01; in series [5], over 6.05.

As for `COc1cc([C@H]2Oc3cc(O)c4c(=O)c(O)c(-c5ccc(O)cc5)oc4c3O[C@@H]2CO)ccc1O` [RHODIOLININ], the values for the IC50 against Sialidase and on Neuraminidase were 6.1 µM and 10.3 µM, respectively. The Ki on Neuraminidase was 14.1 µM. The CC50 at 48 h in series [1] was over 300 µM. Further, the concentration giving a half-maximal response (EC50) in the series with Influenza A virus [2] turned out to be 41.7 µM; in the series on Influenza A virus [3] it was 29.3 µM. The figures for the selectivity ratio in series [4] and in series [5] were over 7.19 and over 10.2, respectively.

`O=c1cc(-c2ccc(O)cc2)oc2cc(O[C@@H]3O[C@H](CO)[C@@H](O)[C@H](O)[C@H]3O)cc(O)c12` [APIGETRIN] had an IC50 on Sialidase of 39.3 µM. At Neuraminidase, the IC50 came out at 46.9 µM and the Ki was determined as 53.8 µM.

For `C[C@@H]1O[C@@H](Oc2cc(O)c3c(=O)c(O)c(-c4ccc(O)cc4)oc3c2O)[C@H](O)[C@H](O[C@@H]2O[C@H](CO)[C@@H](O)[C@H](O)[C@H]2O)[C@H]1O` [RHODIOSIN], the IC50 against Sialidase turned out to be 56.9 µM; at Neuraminidase, 56.5 µM. At Neuraminidase, the Ki came out at 64.1 µM. In series [1], the CC50 at 48 h stood at 297 µM. For the same compound, the selectivity ratio in series [4] amounted to 3.63; in series [5], 8.47.

Take `O=c1c(O)c(-c2ccc(O)cc2)oc2c(O)c(O)cc(O)c12` [HERBACETIN]: the IC50 on Sialidase is 1.4 µM; on Neuraminidase, 8.9 µM. In addition, the inhibition constant (Ki) at Neuraminidase turned out to be 13.7 µM. In series [1], this compound came in with a CC50 at 48 h of 294 µM. For the same compound, the figures for the EC50 in the series with Influenza A virus [2] and with Influenza A virus [3] were 35 µM and 23 µM, respectively. In addition, the results for the selectivity ratio in series [4] and in series [5] were 8.39 and 12.8, respectively.

These data come from ChEMBL document CHEMBL1152586, “Neuraminidase inhibitory activities of flavonols isolated from Rhodiola rosea roots and their in vitro anti-influenza viral activities” (Bioorg Med Chem, 2009).
